Assay results published in ChEMBL document CHEMBL4613308, “Screen of Unfocused Libraries Identified Compounds with Direct or Synergistic Antibacterial Activity” (ACS Med Chem Lett, 2020).
≈ marks a conversion by molar mass, not a printed value.

Experiments:
Escherichia coli [1] = assay: Synergistic antibacterial activity against Escherichia coli CCUG in presence of 0.5 times MIC of colistin by microdilution broth method; assay type: functional
Escherichia coli [2] = assay: Potentiation of colistin-induced antibacterial activity against Escherichia coli CCUG assessed as fold reduction in colistin MIC in by microdilution broth method relative to colistin MIC; assay type: functional
Klebsiella pneumoniae [3] = assay: Antibacterial activity against Klebsiella pneumoniae ATCC 13833 assessed as bacterial growth inhibition by agar diffusion assay; assay type: functional
Pseudomonas aeruginosa [4] = assay: Antibacterial activity against Pseudomonas aeruginosa ATCC 27853 assessed as bacterial growth inhibition by agar diffusion assay; assay type: functional
Acinetobacter baumannii [5] = assay: Antibacterial activity against Acinetobacter baumannii ATCC 17978 assessed as bacterial growth inhibition by agar diffusion assay; assay type: functional
Klebsiella pneumoniae [6] = assay: Synergistic antibacterial activity against Klebsiella pneumoniae ATCC 13833 in presence of 0.5 times MIC of colistin by microdilution broth method; assay type: functional
Escherichia coli [7] = assay: Antibacterial activity against Escherichia coli CCUG assessed as bacterial growth inhibition by agar diffusion assay; assay type: functional
Klebsiella pneumoniae [8] = assay: Potentiation of colistin-induced antibacterial activity against Klebsiella pneumoniae ATCC 13833 assessed as fold reduction in colistin MIC by microdilution broth method relative to colistin MIC; assay type: functional
Acinetobacter baumannii [9] = assay: Potentiation of colistin-induced antibacterial activity against Acinetobacter baumannii ATCC 17978 assessed as fold reduction in colistin MIC by microdilution broth method relative to colistin MIC; assay type: functional
Acinetobacter baumannii [10] = assay: Synergistic antibacterial activity against Acinetobacter baumannii ATCC 17978 in presence of 0.5 times MIC of colistin by microdilution broth method; assay type: functional
Pseudomonas aeruginosa [11] = assay: Antibacterial activity against multidrug-resistant Pseudomonas aeruginosa VR-143/97 clinical isolate assessed as bacterial growth inhibition by agar diffusion assay; assay type: functional
Acinetobacter baumannii [12] = assay: Antibacterial activity against Acinetobacter baumannii AC-54/97 clinical isolate assessed as bacterial growth inhibition by agar diffusion assay; assay type: functional
Enterobacter cloacae [13] = assay: Antibacterial activity against multidrug-resistant Enterobacter cloacae VA 417/02 clinical isolate assessed as bacterial growth inhibition by agar diffusion assay; assay type: functional
Streptococcus pyogenes = assay: Antibacterial activity against Streptococcus pyogenes ATCC 12344 assessed as bacterial growth inhibition by agar diffusion assay; assay type: functional
Enterobacter cloacae [14] = assay: Antibacterial activity against multidrug-resistant Enterobacter cloacae Z19 clinical isolate assessed as bacterial growth inhibition by agar diffusion assay; assay type: functional
Staphylococcus aureus = assay: Antibacterial activity against Staphylococcus aureus ATCC 25923 assessed as bacterial growth inhibition by agar diffusion assay; assay type: functional
Bacillus spizizenii = assay: Antibacterial activity against Bacillus subtilis ATCC 6633 assessed as bacterial growth inhibition by agar diffusion assay; assay type: functional
Enterococcus faecalis = assay: Antibacterial activity against Enterococcus faecalis ATCC 29212 assessed as bacterial growth inhibition by agar diffusion assay; assay type: functional
Escherichia coli [15] = assay: Antibacterial activity against multidrug-resistant Escherichia coli Z25 clinical isolate assessed as bacterial growth inhibition by agar diffusion assay; assay type: functional
Escherichia coli [16] = assay: Synergistic antibacterial activity against Escherichia coli CCUG assessed as fractional inhibitory concentration index in presence of colistin by Checkerboard assay; assay type: functional
Acinetobacter baumannii [17] = assay: Synergistic antibacterial activity against multidrug-resistant Acinetobacter baumannii N50 in presence of 2 ug/ml colistin by microdilution broth method; assay type: functional
HeLa = assay: Cytotoxicity against human HeLa cells assessed as reduction in cell viability assay by CellTox-Green assay; assay type: cell-based
Klebsiella pneumoniae [18] = assay: Synergistic antibacterial activity against colistin-resistant Klebsiella pneumoniae SI-004Bo clinical isolate in presence of 2 ug/ml colistin by microdilution broth method (reference value: 64 ug/ml); assay type: functional
Acinetobacter baumannii [19] = assay: Synergistic antibacterial activity against Acinetobacter baumannii ATCC 17978 assessed as fractional inhibitory concentration index in presence of colistin by Checkerboard assay; assay type: functional
Klebsiella pneumoniae [20] = assay: Synergistic antibacterial activity against colistin-resistant Klebsiella pneumoniae SI-081R clinical isolate in presence of 2 ug/ml colistin by microdilution broth method (reference value: 256 ug/ml); assay type: functional

Compound | MIC (Escherichia coli [1]) [µg/mL] | log2FC (Escherichia coli [2]) | MIC (Klebsiella pneumoniae [3]) [µg/mL] | MIC (Pseudomonas aeruginosa [4]) [µg/mL] | MIC (Acinetobacter baumannii [5]) [µg/mL] | MIC (Klebsiella pneumoniae [6]) [µg/mL] | MIC (Escherichia coli [7]) [µg/mL] | log2FC (Klebsiella pneumoniae [8]) | log2FC (Acinetobacter baumannii [9]) | MIC (Acinetobacter baumannii [10]) [µg/mL] | MIC (Pseudomonas aeruginosa [11]) [µg/mL] | MIC (Acinetobacter baumannii [12]) [µg/mL] | MIC (Enterobacter cloacae [13]) [µg/mL] | MIC (Streptococcus pyogenes) [µg/mL] | MIC (Enterobacter cloacae [14]) [µg/mL] | MIC (Staphylococcus aureus) [µg/mL] | MIC (Bacillus spizizenii) [µg/mL] | MIC (Enterococcus faecalis) [µg/mL] | MIC (Escherichia coli [15]) [µg/mL] | also measured
CCCCCCC(C)(C)c1cc(O)cc(OCCCCCCCC(=O)NCCO)c1 | 2 | 8 | > 512 | > 512 | > 512 | 4 | > 512 | 7 | 7 | 4 |  |  |  |  |  |  |  |  |  | 
COc1ccc(CNC(=O)c2c(O)c3cc(-c4cccnc4)ccc3n(CCCCO)c2=O)cc1 | 32 | 4 | 32 (≈ 67.6 µM) | 256 (≈ 541 µM) | 16 (≈ 33.8 µM) | 64 | 64 (≈ 135 µM) | 3 | 5 | 16 | > 256 | > 256 | 64 (≈ 135 µM) | 8 (≈ 16.9 µM) | > 256 | 4 (≈ 8.45 µM) | 0.12 (≈ 0.253 µM) | 16 (≈ 33.8 µM) | > 256 | fractional inhibitory concentration index (FICI) (Escherichia coli [16]): 0.56
O=C(O)c1cn(C2CC2)c2cc(Br)c(F)cc2c1=O |  |  | ≤ 0.12 | 8 (≈ 24.5 µM) | 0.5 (≈ 1.53 µM) |  | 0.25 (≈ 0.767 µM) |  |  |  | 256 (≈ 785 µM) | 256 (≈ 785 µM) | 0.25 (≈ 0.767 µM) | 4 (≈ 12.3 µM) | > 256 | 4 (≈ 12.3 µM) | ≤ 0.12 | 4 (≈ 12.3 µM) | > 256 | 
CCOC(=O)c1cn(CC)c2cc(N)c(F)cc2c1=O |  |  | 128 (≈ 460 µM) | > 256 | 256 (≈ 920 µM) |  | 32 (≈ 115 µM) |  |  |  | > 256 | > 256 | > 256 | 64 (≈ 230 µM) | > 256 | 256 (≈ 920 µM) | 32 (≈ 115 µM) | 256 (≈ 920 µM) | > 256 | 
CC(C)(C)n1cc(C(=O)O)c(=O)c2cc(F)c(-c3ccc(F)cc3F)cc21 |  |  | 4 (≈ 10.7 µM) | 64 (≈ 171 µM) | 8 (≈ 21.3 µM) |  | 16 (≈ 42.6 µM) |  |  |  | > 256 | > 256 | 4 (≈ 10.7 µM) | 1 (≈ 2.66 µM) | > 256 | 2 (≈ 5.33 µM) | ≤ 0.12 | 2 (≈ 5.33 µM) | > 256 | 
CC(C)(C)n1cc(C(=O)O)c(=O)c2cc(F)c(Sc3ccccc3)cc21 |  |  | 8 (≈ 21.5 µM) | 256 (≈ 689 µM) | 32 (≈ 86.2 µM) |  | 16 (≈ 43.1 µM) |  |  |  | 128 (≈ 345 µM) | > 256 | 16 (≈ 43.1 µM) | 1 (≈ 2.69 µM) | 256 (≈ 689 µM) | 2 (≈ 5.38 µM) | ≤ 0.12 | 2 (≈ 5.38 µM) | > 256 | 
CC(C)(C)n1cc(C(=O)O)c(=O)c2cc(F)c(Br)cc21 |  |  | 1 (≈ 2.92 µM) | 32 (≈ 93.5 µM) | 8 (≈ 23.4 µM) |  | 8 (≈ 23.4 µM) |  |  |  | > 256 | > 256 | 2 (≈ 5.85 µM) | 8 (≈ 23.4 µM) | > 256 | 8 (≈ 23.4 µM) | ≤ 0.12 | 2 (≈ 5.85 µM) | > 256 | 
CCCCCc1cc(O)cc(OCCCCCCCCCCC(=O)NC(CO)CO)c1 | 8 | 6 | > 512 | > 512 | > 512 | 8 | > 512 | 6 | 7 | 4 |  |  |  |  |  |  |  |  |  | 
O=C(NCc1ccc2c(c1)OCO2)c1cnn(-c2ccccc2)c1-n1cccc1 | 64 | 3 | > 512 | > 512 | > 512 | 64 | > 512 | 3 | 4 | 32 |  |  |  |  |  |  |  |  |  | MIC (Acinetobacter baumannii [17]): 32 µg/mL; IC50 (HeLa): > 60 µg/mL; MIC (Klebsiella pneumoniae [18]): > 64 µg/mL; fractional inhibitory concentration index (FICI) (Acinetobacter baumannii [19]): 0.38; MIC (Klebsiella pneumoniae [20]): > 64 µg/mL
CCCCCCc1ccc(O)cc1OCCCCCC(=O)NCCO |  |  | > 512 | > 512 | > 512 |  | > 512 |  | 6 | 8 |  |  |  |  |  |  |  |  |  | 
